Laboratory results from patent US8618063B2, “Method for treating a synucleinopathy” (The Board of Trustees of the University of Illinois, priority 2008, dated 2013).

Experiments:
[1] = test system: MPP+ induced failure of neurotransmission; assay: Squid giant synapse: prevention of MPP+ induced failure of neurotransmission; type: cell-based; conditions: co-injection with MPP+
Procedure: (§1) If they both work by activating PKC and increasing retrograde transport, they might affect availability of synaptic vesicle components in presynaptic terminals. Accordingly, either wild-type α-synuclein, Ala30Pro α-synuclein, or MPP+ were injected into the presynaptic side of the squid giant synapse as described for synaptic vesicles and synapsin (McGuinness, et al. (1989) J. Neurosci. 9:4138-4149; Llinas, et al. (1989) Proc. Nat. Acad. Sci. USA 86:5656-5660). This preparation has been used to evaluate the effects of reagents on presynaptic function by injecting, then stimulating the presynaptic side while recording intracellularly on both pre- and post-synaptic sides (Llinas, et al. (2004) Proc. Natl. Acad. Sci. USA 101:17855-60; Sugimori, et al. (1998) Neuroscience 86:39-51).

[2] = test system: α-synuclein mutant Ala30Pro effects on fast axonal transport; assay: Isolated axoplasm: blocking of mutant α-synuclein (Ala30Pro) effects on fast axonal transport; type: cell-based, squid Loligo pealeii; conditions: coperfused with α-synuclein mutant Ala30Pro, FIG. 3
Procedure: (§2) Axoplasm was extruded from giant axons of the squid Loligo pealeii (Marine Biological Laboratory) according to established methods (Brady, et al. (1985) Cell Motil. 5(2):81-101). Axons were 400-600 μm in diameter and provided ≈5 μl of axoplasm per axon. Wild-type α-synuclein or α-synuclein with point mutations associated with familial Parkinson's disease (Ala30Pro or Ala53Thr), MPP+, enzymes or inhibitors were diluted into X/2 buffer (175 mM potassium aspartate, 65 mM taurine, 35 mM betaine, 25 mM glycine, 10 mM HEPES, 6.5 mM MgCl2, 5 mM EGTA, 1.5 mM CaCl2, 0.5 mM glucose, pH 7.2) supplemented with 2-5 mM ATP and 20 μl of this mix was added to perfusion chambers (Brady, et al. (1985) supra). Preparations were analyzed on a ZEISS AXIOMAT with a 100×, 1.3 na objective, and DIC optics. Hamamatsu Argus 20 and Model 2400 CCD camera were used for image processing and analysis. Organelle velocities were measured with a Photonics Microscopy C2117 video manipulator (Hamamatsu).
Accordingly, these inhibitors were coperfused with pathological α-synuclein mutant Ala30Pro and fast axonal transport was monitored. […] Similarly, the effects of α-synuclein mutant Ala30Pro could be blocked by a PKCmu peptide substrate (FIG. 3B) and an inhibitor of Src-Family Tyrosine Kinases (PP2) (FIG. 3C).

[3] = test system: MPP+ effects on fast axonal transport; assay: Isolated axoplasm: blocking of MPP+ effects on fast axonal transport; type: cell-based, squid Loligo pealeii; conditions: for blocking of MPP+ effects on fast axonal transport: FIG. 5B
Procedure: as §2
(§3) MPTP/MPP+ is the best characterized example of toxin-induced Parkinson's disease. The effects of MPP+ on fast axonal transport were examined in axoplasm as was dynein phosphorylation in cells. […] Based on reports that MPP+ could activate caspase3 (Turmel, et al. (2001) Mov. Disord. 16:185-9) and that caspase3 can activate a PKC by proteolytic cleavage (Kaul, et al. (2003) Eur. J. Neurosci. 18:1387-401), the ability of a caspase3 inhibitor to block effects of MPP+ on fast axonal transport was evaluated. […] Further, perfusion with Caspase 3 affected retrograde transport in a manner similar to PKC and MPP+ (retrograde transport=1.462±0.016 μm/sec).

[4] = test system: Ala30Pro mutant α-synuclein induced failure of neurotransmission; assay: Squid giant synapse: prevention of Ala30Pro α-synuclein induced failure of neurotransmission; type: cell-based; conditions: co-injection / coperfusion with Ala30Pro α-synuclein
Procedure: as §1

DIC phosphorylation = assay: Labeling studies with MPP+ treated cortical neurons; type: cell-based
Procedure: One mCi ^32P phosphate (ICN) was added per dish and incubated for 4 hours. Medium was discarded, cells homogenized in 1 ml of ROLB buffer and processed accordingly to standard methods (Morfini, et al. (2004) supra). Axoplasms were prepared as for video microscopy, but 1 mCi of γ-^32P-ATP was added. After 50 minutes incubation, axoplasms were homogenized in ROLB buffer. A 10 μl aliquot of lysate was precipitated with 15% TCA and radioactivity incorporated into protein determined by scintillation counting. Aliquots of equal counts were used for kinesin immunoprecipitation with 10 μg of 74.1 antibody and Protein G-agarose beads (Pierce). Immunoprecipitates were separated by SDS-PAGE, dried and exposed in a PHOSPHORIMAGER cassette, then scanned and quantified on a TYPHOON (Amersham/Molecular Dynamics).
as §3

fast axonal transport = assay: Motility studies in isolated axoplasm: effect of perfused substance on fast axonal transport; type: cell-based, squid Loligo pealeii; conditions: substance perfused alone into isolated axoplasm
Procedure: as §2

PKC = PKC activity in axoplasm; type: biochemical, squid
Procedure: In the analysis disclosed herein, 3-4 axoplasms were triturated in KB buffer (10 mM HEPES, pH 7.4, 10 mM MgCl2, 1 mM DTT) and aliquoted. Individual reactions with corresponding in vitro translated AR constructs were started by adding radiolabeled ATP to 100 μM. Reactions were performed in 50 μl, incubated for 20 minutes at room temperature and stopped with 50 μl of 2× sample buffer. Lysates were separated by SDS-PAGE and analyzed by autoradiography.

[5] = test system: neurotransmission at squid giant synapse; assay: Squid giant synapse: neurotransmission after presynaptic injection; type: cell-based; conditions: injected into presynaptic side of squid giant synapse; observed up to 90 minutes
Procedure: as §1

Row | SMILES | prevention of MPP+ induced failure of neurotransmission [1] | blocking of familial Parkinson's disease mutant α-synuclein (Ala30Pro) effects on fast axonal transport ([2]; listed as Caspase inhibitor) | blocking of familial Parkinson's disease mutant α-synuclein (Ala30Pro) effects on fast axonal transport ([2]; listed as inhibitors of Caspase 3) | blocking of MPP+ effects on fast axonal transport [3] | blocking of MPP+ effects on fast axonal transport ([3]; listed as caspase3 inhibitor II) | anterograde transport rate in presence of MPP+ and inhibitor ([3]; coperfused with MPP+) [μm/sec] | retrograde transport rate in presence of MPP+ and inhibitor ([3]; coperfused with MPP+) [μm/sec] | prevention of Ala30Pro α-synuclein effect on neurotransmission [4] | blocking of MPP+ induced increase in DIC phosphorylation (DIC phosphorylation; MPP+ treated cortical neurons) | retrograde transport rate (fast axonal transport; controls 1.2 μm/sec) [μm/sec] | anterograde transport rate (fast axonal transport; controls 1.6 μm/sec) [μm/sec] | PKC activity in axoplasm (PKC) | DIC phosphorylation (DIC phosphorylation; cortical neurons treated with substance alone) | effect on neurotransmission, in words [5]
1 | COC(=O)CC[C@H](NC(=O)[C@H](CC(=O)OC)NC(=O)OCc1ccccc1)C(=O)N[C@H](C(=O)N[C@@H](CC(=O)OC)C(=O)CF)C(C)C [Caspase3 Inhibitor II] | prevented | ineffective | not effective | completely block | blocked | 1.527±0.019 | 1.187±0.019 | not effective | blocked |  |  |  |  | 
2 | C[n+]1ccc(-c2ccccc2)cc1 [MPP+] |  |  |  |  |  |  |  |  |  | 1.461±0.023 | 1.272±0.0032 | activated PKC activity | increased DIC phosphorylation | failure of neurotransmission
